From patent publication US9499550B2 (BRISTOL-MYERS SQUIBB COMPANY, priority 2012, dated 2016)
Read-outs that look alike come from different tables or passages of the source.

How the values were obtained:
[1] = system: HCV genotype 1b (Con1) replicon in HUH-7 cells; experiment: HCV replicon luciferase reporter assay, genotype 1b; format: cell-based; conditions: Hepatitis C virus, Huh-7, 72 h, 3 days incubation, read-out: LE_1b (EC50, range)
Excerpt: (§1) Generation of HCV Replicon
An HCV replicon whole cell system was established as described by Lohmann V, Korner F, Koch J, Herian U, Theilmann L, Bartenschlager R., Science 285(5424):110-3 (1999) and modified to introduce a luciferase reporter, as first described by Krieger et al (Krieger N, Lohmann V, and Bartenschlager R, J. Virol. 75(10):4614-4624 (2001)). CDNA encoding a humanized form of the Renilla luciferase gene and a linker sequence fused directly to the 3′-end of the luciferase gene were introduced into the replicon construct using an Asc1 restriction site located in core, directly upstream of the neomycin marker gene. The adaptive mutation at position 1179 (serine to isoleucine) was also introduced (Blight K J, Kolykhalov, A A, Rice, C M, Science 290(5498):1972-1974). A stable cell line constitutively expressing this HCV replicon construct was generated by first linearizing plasmid DNAs with ScaI. RNA transcripts were synthesized in vitro using the T7 MegaScript transcription kit (Ambion, Austin, Tex.) according to manufacturer's directions. In vitro transcripts of the cDNA were transfected into the human hepatoma cell line, HUH-7. […] Resulting cell lines were characterized for positive and negative strand RNA production and protein production over time. […]
(§2) HCV Replicon Luciferase Reporter Assay
(§3) HCV replicon luciferase assays were developed to monitor the inhibitory effects of compounds described in the disclosure on HCV genotypes 1a and 1b viral replication. HUH-7 cells, constitutively expressing the HCV replicon, were grown in Dulbecco's Modified Eagle Media (DMEM) (Gibco-BRL) containing 10% Fetal calf serum (FCS) (Sigma) and 1 mg/mL G418 (Gibco-BRL). Compounds were serially diluted 3 folds in DMSO for a twenty-point titration and subsequently transferred to sterile 384-well tissue-culture treated plates (Corning cat #3571). The plates were then seeded with 50 μL of cells at a density of 3.0×10^3 cells/well in DMEM containing 4% FCS (final DMSO concentration at 0.5%). After 3 days incubation at 37° C., cells were analyzed for Renilla Luciferase activity using the EnduRen as substrate (Promega cat #E6485). The EnduRen substrate was diluted in DMEM and then added to the plates to a final concentration of 7.5 μM. The plates were incubated for 2 hrs at 37° C. and then read immediately for 30 seconds with Viewlux Imager (PerkinElmer) using a luminescence program. To assess cytotoxicity of compounds, CC50 values were generated by multiplexing the EnduRen-containing plates with Cell Titer-Blue (Promega, cat # G8082). Cell-Titer Blue (3 μL) was added to each well and incubated for 8 hrs at 37° C. The fluorescence signal from each well was read, with an excitation wavelength at 525/10 nm and an emission wavelength of 598/10 nm, using the Viewlux Imager.
(§4) The EC50 values for compounds were calculated by using a four-parameter logistic equation: y=A+((B−A)/(1+((C/x)^D))), where A and B denotes minimal and maximal % inhibition, respectively, C is the EC50, D is the hill slope and x represents compound concentration.

[2] = system: HCV genotype 1a (H77 strain) replicon in HUH-7 cells; experiment: HCV replicon luciferase reporter assay, genotype 1a; format: cell-based; conditions: Hepatitis C virus, Huh-7, 72 h, 3 days incubation, read-out: LE_1a (EC50, range)
Excerpt: as §1
An HCV replicon whole cell system was established as described by Lohmann V, Korner F, Koch J, Herian U, Theilmann L, Bartenschlager R., Science 285(5424):110-3 (1999) and modified to introduce a luciferase reporter, as first described by Krieger et al (Krieger N, Lohmann V, and Bartenschlager R, J. Virol. 75(10):4614-4624 (2001)). CDNA encoding a humanized form of the Renilla luciferase gene and a linker sequence fused directly to the 3′-end of the luciferase gene were introduced into the replicon construct using an Asc1 restriction site located in core, directly upstream of the neomycin marker gene. The adaptive mutation at position 1179 (serine to isoleucine) was also introduced (Blight K J, Kolykhalov, A A, Rice, C M, Science 290(5498):1972-1974). A stable cell line constitutively expressing this HCV replicon construct was generated by first linearizing plasmid DNAs with ScaI. RNA transcripts were synthesized in vitro using the T7 MegaScript transcription kit (Ambion, Austin, Tex.) according to manufacturer's directions. In vitro transcripts of the cDNA were transfected into the human hepatoma cell line, HUH-7. […] Resulting cell lines were characterized for positive and negative strand RNA production and protein production over time.
A stable HCV replicon luciferase reporter cell line representing the genotype 1a H77 strain (Yanagi M, Purcell R H, Emerson S U, et al. Transcripts from a single full-length cDNA clone of hepatitis C virus are infectious when directly transfected into the liver of a chimpanzee. Proc Natl Acad Sci USA 1997; 94(16):8738-8743) was generated as described previously for the genotype 1b(Con1) replicon luciferase cell line. The replicon construct was modified by introducing mutations were introduced into the genes encoding the NS3 helicase domain (proline replaced by leucine at position 1496) and NSSA (serine to isoleucine at position 2204) to improve replication in cell culture.
as §2, §3, §4

[3] = HCV genotype 1b replicon luciferase assay, range class
[4] = HCV genotype 1a replicon luciferase assay, range class
[5] = HCV genotype 1b replicon luciferase
[6] = HCV genotype 1a replicon luciferase

SMILES | EC50 [1, 3] [nM] | EC50 [2, 4] [nM] | EC50 [1, 5] [nM] | EC50 [2, 6] [nM]
COc1ccc2c(O[C@@H]3C[C@H]4C(=O)N[C@]5(C(=O)NS(=O)(=O)C6CC6)C[C@H]5/C=C\CC[C@@H](C)C[C@@H](C)[C@H](NC(=O)O[C@@H]5C[C@@H]6C[C@@H]6C5)C(=O)N4C3)nc(-c3ccc(OC)c(Cl)c3)cc2c1 [Compound 3054, (1R,3r,5S)-bicyclo[3.1.0]hexan-3-yl((2R,6S,7R,9R,13aS,14aR,16aS,Z)-2-((3-(3-chloro-4-methoxyphenyl)-6-methoxyisoquinolin-1-yl)oxy)-14a-((cyclopropylsulfonyl)carbamoyl)-7,9-dimethyl-5,16-dioxo-1,2,3,5,6,7,8,9,10,11,13a,14,14a,15,16,16a-hexadecahydrocyclopropa[e]pyrrolo[1,2-a][1,4]diazacyclopentadecin-6-yl)carbamate] | < 5.46 | < 5.46 |  | 
COc1cnc(O[C@@H]2C[C@H]3C(=O)N[C@]4(C(=O)NS(=O)(=O)C5(F)CC5)C[C@H]4/C=C\CC[C@@H](C)C[C@@H](C)[C@H](NC(=O)OC(C)(C)C)C(=O)N3C2)c2ccccc12 [Compound 4224] |  |  | < 5.46 | < 5.46
COc1ccc2c(O[C@@H]3C[C@H]4C(=O)N[C@]5(C(=O)NS(=O)(=O)C6(F)CC6)C[C@H]5/C=C\CC[C@@H](C)C[C@@H](C)[C@H](NC(=O)OC(C)(C)C)C(=O)N4C3)nccc2c1 [Compound 9, tert-butyl ((2R,6S,7R,9R,13aS,14aR,16aS,Z)-14a-(((1-fluorocyclopropyl)sulfonyl)carbamoyl)-2-((6-methoxyisoquinolin-1-yl)oxy)-7,9-dimethyl-5,16-dioxo-1,2,3,5,6,7,8,9,10,11,13a,14,14a,15,16,16a-hexadecahydrocyclopropa[e]pyrrolo[1,2-a][1,4]diazacyclopentadecin-6-yl)carbamate] | < 5.46 | < 5.46 |  | 
COc1ccc2c(O[C@@H]3C[C@H]4C(=O)N[C@]5(C(=O)NS(=O)(=O)C6(CF)CC6)C[C@H]5/C=C\CC[C@@H](C)C[C@@H](C)[C@H](NC(=O)OC(C)(C)C(F)(F)F)C(=O)N4C3)nc(Cl)cc2c1 [Compound 1165, 1,1,1-trifluoro-2-methylpropan-2-yl((2R,6S,7R,9R,13aS,14aR,16aS,Z)-2-((3-chloro-6-methoxyisoquinolin-1-yl)oxy)-14a-(((1-(fluoromethyl)cyclopropyl)sulfonyl)carbamoyl)-7,9-dimethyl-5,16-dioxo-1,2,3,5,6,7,8,9,10,11,13a,14,14a,15,16,16a-hexadecahydrocyclopropa[e]pyrrolo[1,2-a][1,4]diazacyclopentadecin-6-yl)carbamate] | < 5.46 | < 5.46 |  | 
CC(C)Oc1cc2c(Cl)cccc2c(O[C@@H]2C[C@H]3C(=O)N[C@]4(C(=O)NS(=O)(=O)C5CC5)C[C@H]4/C=C\CC[C@H](C)C[C@@H](C)[C@H](NC(=O)OC(C)(C)C)C(=O)N3C2)n1 [Compound 1091, tert-butyl ((2R,6S,7R,9S,13aS,14aR,16aS,Z)-2-((5-chloro-3-isopropoxyisoquinolin-1-yl)oxy)-14a-((cyclopropylsulfonyl)carbamoyl)-7,9-dimethyl-5,16-dioxo-1,2,3,5,6,7,8,9,10,11,13a,14,14a,15,16,16a-hexadecahydrocyclopropa[e]pyrrolo[1,2-a][1,4]diazacyclopentadecin-6-yl)carbamate] | < 5.46 | 4.82 to 103 |  | 
COc1ccc2c(O[C@@H]3C[C@H]4C(=O)N[C@]5(C(=O)NS(=O)(=O)C6(CF)CC6)C[C@H]5/C=C\CC[C@@H](C)C[C@@H](C)[C@H](NC(=O)OC(C)(C)C)C(=O)N4C3)nc(-c3ccc(OC(C)C)cc3)cc2c1 [Compound 4167, tert-butyl (2R,6S,7R,9R,13aS,14aR,16aS,Z)-14a-(1-(fluoromethyl)cyclopropylsulfonylcarbamoyl)-2-(3-(4-isopropoxyphenyl)-6-methoxyisoquinolin-1-yloxy)-7,9-dimethyl-5,16-dioxo-1,2,3,5,6,7,8,9,10,11,13a,14,14a,15,16,16a-hexadecahydrocyclopropa[e]pyrrolo[1,2-a][1,4]diazacyclopentadecin-6-ylcarbamate] |  |  | < 5.46 | < 5.46
COc1ccc2c(O[C@@H]3C[C@H]4C(=O)N[C@]5(C(=O)NS(=O)(=O)C6(CF)CC6)C[C@H]5/C=C\CC[C@@H](C)C[C@@H](C)[C@H](NC(=O)OC(C)(C)C)C(=O)N4C3)nc(N(C)C)nc2c1 [Compound 3006, tert-butyl ((2R,6S,7R,9R,13aS,14aR,16aS,Z)-2-((2-(dimethylamino)-7-methoxyquinazolin-4-yl)oxy)-14a-(((1-(fluoromethyl)cyclopropyl)sulfonyl)carbamoyl)-7,9-dimethyl-5,16-dioxo-1,2,3,5,6,7,8,9,10,11,13a,14,14a,15,16,16a-hexadecahydrocyclopropa[e]pyrrolo[1,2-a][1,4]diazacyclopentadecin-6-yl)carbamate] | < 5.46 | < 5.46 |  | 
COCCn1nc(O[C@@H]2C[C@H]3C(=O)N[C@]4(C(=O)NS(=O)(=O)C5CC5)C[C@H]4/C=C\CC[C@H](C)C[C@@H](C)[C@H](NC(=O)OC(C)(C)C(C)(F)F)C(=O)N3C2)c2ccccc2c1=O [Compound 1023, 3,3-difluoro-2-methylbutan-2-yl((2R,6S,7R,9S,13aS,14aR,16aS,Z)-14a-((cyclopropylsulfonyl)carbamoyl)-2-((3-(2-methoxyethyl)-4-oxo-3,4-dihydrophthalazin-1-yl)oxy)-7,9-dimethyl-5,16-dioxo-1,2,3,5,6,7,8,9,10,11,13a,14,14a,15,16,16a-hexadecahydrocyclopropa[e]pyrrolo[1,2-a][1,4]diazacyclopentadecin-6-yl)carbamate] | > 87.4 |  |  | 
COc1ccc2c(O[C@@H]3C[C@H]4C(=O)N[C@]5(C(=O)NS(=O)(=O)C6(CF)CC6)C[C@H]5/C=C\CC[C@H](C)C[C@@H](C)[C@H](NC(=O)OC(C)(C)C(C)(F)F)C(=O)N4C3)nccc2c1 [Compound 1142, 3,3-difluoro-2-methylbutan-2-yl((2R,6S,7R,9S,13aS,14aR,16aS,Z)-14a-(((1-(fluoromethyl)cyclopropyl)sulfonyl)carbamoyl)-2-((6-methoxyisoquinolin-1-yl)oxy)-7,9-dimethyl-5,16-dioxo-1,2,3,5,6,7,8,9,10,11,13a,14,14a,15,16,16a-hexadecahydrocyclopropa[e]pyrrolo[1,2-a][1,4]diazacyclopentadecin-6-yl)carbamate] | < 5.46 |  |  | 
